What was measured:
Per2::Luc U2OS cells = test: Per2::Luc cell based circadian assay; details: for circadian period length: Per2::Luc U2OS cells, dose response
Procedure: U2OS cells stably transfected with a Per2::Luc reporter were cultured in DMEM supplemented with 10% FBS. For siRNA- and drug-based experiments, cells were seeded at 5,000 per well into white 384 well plates and transfected with 20 nM siRNA the next day. 2 days later, the cells were synchronized with 100 nM dexamethasone and the medium was replaced with phenol-red free DMEM supplemented with B-27 and 100 µM luciferin potassium salt, requisite drugs formulated in DMSO as a 1000× stock was added, and then sealed. Per2::Luc rhythms were recorded from a BMG Labtech Fluostar Omega plate reader maintained at 36° C. and readings taken from each well every hour. Data were then analysed using either Multicycle or Brass rhythm analysis software.
Period2::Luciferase (Per2::Luc) stable U2OS transfects were cultured, as described above. A Greiner Bio-One 384 Well Plate (Polystyrene, F-bottom), was then seeded at 6000 cells per 50 μl well. Following a 24 hour period, the cells were treated with 0.1% dexamethasone, a glucocorticoid hormone analogue known to reset intracellular circadian rhythms, for 1 hour. Subsequently, the dexamethasone-containing medium was removed, the cells were washed with PBS and luciferin and test drug containing medium was added. The cells were then assayed for luminescence over a period of 96 hours in the BMG FLUOstar OPTIMA Microplate Reader to observe the periodicity and amplitude of the luminescence values.

[1] = tested on: STAR-PROM plasmid library; test: STAR-PROM transcription factor screening in U2OS cells; type: cell-based; details: siFos
Procedure: This was conducted as previously reported in Gerber et al., Cell. […] Briefly, U2OS cells were cultured in 6-well plates and transfected with 1 ug of the STAR-PROM plasmid library (library structure as in above reference). RNA was extracted at set time points and sequenced for the barcoded luciferase constructs and analysed with Galaxy (https://use.galaxy.org).

Per1/2 [2] = test: Sleep deprivation, Per1/2 expression within the SCN; type: in vivo; details: sleep deprivation decreases Per1/2 expression
[3] = tested on: intracellular levels of cAMP; test: cAMP GloSensor assay in U2OS cells; type: cell-based
Procedure: The GloSensor™ cAMP Assay (Promega) was used for detecting changes in the intracellular levels of cAMP. Initially, a Greiner Bio-One 96 Well Plate (white, TC treated) was seeded at 8000 cells per 100 μl well, as described above. After 24 hours, the cells were transfected with the pGloSensor™ cAMP Plasmid using the Viafect transfection reagent as above. Between 24 and 48 hours later, allowing for the accumulation of the biosensor, the medium in the 96 well plate was changed to C02-Independent Medium supplemented with GlutaMAX™ (Life Technologies), 10% fetal bovine serum and 2% GloSensor™ cAMP Reagent. The plate was then stood for 2 hours at room temperature to equilibrate. Following the incubation period, the cells were treated with relevant drugs and their luminescence values were measured after 20 minutes in the BMG FLUOstar OPTIMA Microplate Reader, with forskolin as a positive control, and DMSO as a negative control.

CRE::Luc reporter = test: CRE-Luc luciferase assay in U2OS cells; type: cell-based
Procedure: At 60-80% confluence and >90% viability, the U2OS cells in the T-75 flask were washed twice with 6 ml phosphate-buffered saline (PBS) and subsequently treated with 4 ml of TrypLE™ Express trypsin replacement solution for 10 minutes. A Greiner Bio-One 96 Well Plate (white, TC treated), was then seeded at 8000 cells per well. Following 24 hours, the cells were transfected at 50-70% confluency with CRE-luc Vector generated in-house with Viafect transfection reagent at 1:4 ratio (100 ng DNA/well) following manufacturers recommendations.
24 hours after transfection, the medium in the 96 well plate was changed to a serum-free medium with 1 mM luciferin. The cells were then incubated in serum starvation conditions for 6-8 hours, this was optimised to yield the greatest signal strength and lowest noise when assayed with forskolin control. Following the incubation period, the CRE-Luc U2OS cells were treated with the appropriate drug and their luminescence values were measured after 6 hours in the BMG FLUOstar OPTIMA Microplate Reader. […] Unless stated otherwise, forskolin was used as a positive control, and 1% DMSO was used as a negative control.

Per1 = Per1 mRNA levels in U2OS cells by qPCR; type: cell-based; details: U2OS cells, qPCR, concentration not given
Procedure: (§1) Total RNA was extracted using the microRNeasy column method (Qiagen, Hilden, Germany). Quality and quantity of RNA were measured using an Agilent Bioanalyzer and a Nanodrop1000 (Thermo Fisher Scientific, Waltham, MA USA), respectively.
(§2) RNA samples were prepared as described for microarray hybridisation. cDNA was synthesized with a qScript cDNA synthesis kit (Quanta Biosciences, Gaithersburg, MD), and quantitative PCR (qPCR) was conducted with Sybr green I and an SDS7700 thermal cycler (Applied Biosystems, Foster City, CA). Relative quantification of transcript levels was done as described previously (Peirson et al., Nucleic Acids Res. 2003 Jul. 15; 31(14):e73.). The geometric mean of a minimum of three housekeeping genes was used for normalization (Gapdh, ActB, GusB and Rps9 for example).
(§3) Cells from the U2OS (HTB-96) line were obtained, tested and identified. The cells were cultured in T-75 flasks, in Dulbecco's modified Eagle medium (DMEM) supplemented with 10% foetal bovine serum (FBS) and 1% penicillin-streptomycin (P/S) at 37° C. in a humidified atmosphere at 5% CO2. The cells were subcultured every 2 to 4 days in a 1:2 to 1:6 ratio, in accordance with the ATCC recommendations. The cells were counted using a haemocytometer, and their viability in a culture was maintained at above 95%, measured with a Presto Blue exclusion assay according to the manufacturer's specifications. Cells were transfected with siRNAs (typically at 50 nM concentrations, sequences as previously listed), the CRE::Luc (pGL4.29[luc2P/CRE/Hygro] Vector, encoding Luc2P […] under the control of a strong cAMP response element (CRE) promoter containing 3 CRE elements within its sequence; Promega) reporter vector or cAMP-GLOSensor plasmid (Promega) as per manufacturer's instructions using either Lipofectamine RNAimax (Invitrogen) or Lipofectamine3000 (Invitrogen).

Per2 = Per2 mRNA levels in U2OS cells by qPCR; type: cell-based; details: U2OS cells, qPCR, concentration not given
Procedure: as §1, §2, §3

C57Bl/6 mice [4] = test: Phase shifting of circadian activity by drug (running wheel); type: in vivo; details: administered at CT22, absence of a light pulse
Procedure: Animals were housed under a reversed 12:12 LD cycle (400 lux from white LED lamps) with food and water ad libitum. For phase-shifting studies, C57Bl/6 mice were maintained on running wheels in light tight chambers on a 12:12 LD cycle (400 lux from white LED lamps) and injected with drug at the indicated time points. The drugs were formulated in a vehicle consisting of 5% Koliphor-HS15 (Sigma-Aldrich, UK) 5% Cyclodextran (Sigma-Aldrich, UK) in 0.9% saline. This vehicle was warmed to 37° C. and the indicated drugs kept at a 100× stock in DMSO and mixed at the appropriate concentration to be administered at approximately 300 ul intraperitoneal injection (n=6 to 10). Where the time point of injection was in the dark, the procedure was conducted under dim red light. Where measuring phase-shifting, the mice were then placed in DD and allowed to free run for 14 days in DD, running wheel activity data was collected and analysed on Clocklab (Actimetrics, Wilmette, IL). For jet-lag studies, mice were maintained on running wheels in light tight chambers on a 12:12 LD cycle (400 lux from white LED lamps) and injected with drugs as above at ZT6 and the LD cycle was shifted 6 hours in advance. The onset of activity on each day was used to measure phase relative to the LD cycle.
Phase Shifting: C57Bl/6 male mice (80 days or older) were maintained on running wheels in light tight chambers on a 12:12 LD cycle (100 lux from white LED lamps) on stable entrainment, were released in complete darkness. At set times as indicated in the experiments, the animals received an intraperitoneal injection (300 ul) of drug constituted in sterile saline with 5% Cyclodextrin (Sigma-Aldrich) and 5% Koliphor (Sigma-Aldrich) and then allowed to free run in DD, running wheel activity data were collected and analysed on Clocklab (Actimetrics, Wilmette, IL).

C57Bl/6 mice [5] = test: Phase shifting of circadian activity in response to a light pulse with drug; type: in vivo; details: 1 mg/kg intraperitoneal before 30 min 400 lux light pulse at CT22
Procedure: Animals were maintained in a 12 h light (white) 12 h dark (grey) cycle and vehicle was administered just before a 30 min 400 lux light pulse (white bar) at time CT 22 (or 10 hours after lights off). All light cues were then removed to allow the animals free running clock to express. A gap in the lines on the day after the light pulse was administered indicates a phase shift.
Animals were maintained in a 12 h light (white) 12 h dark (grey) cycle and IB-MECA (1 mg/kg) was administered just before a 30 min 400 lux light pulse (white bar) at time CT 22 (or 10 hours after lights off).
Animals were housed under a reversed 12:12 LD cycle (400 lux from white LED lamps) with food and water ad libitum. For phase-shifting studies, C57Bl/6 mice were maintained on running wheels in light tight chambers on a 12:12 LD cycle (400 lux from white LED lamps) and injected with drug at the indicated time points. The drugs were formulated in a vehicle consisting of 5% Koliphor-HS15 (Sigma-Aldrich, UK) 5% Cyclodextran (Sigma-Aldrich, UK) in 0.9% saline. […] Where measuring phase-shifting, the mice were then placed in DD and allowed to free run for 14 days in DD, running wheel activity data was collected and analysed on Clocklab (Actimetrics, Wilmette, IL). […]

Per1/2 [6] = test: Sleep deprivation, Per1/2 within the cortex; type: in vivo; details: data not shown

SMILES: Nc1nc2ccc(Cl)cc2c2nc(-c3ccco3)nn12 [CGS15943, 9-chloro-2-(furan-2-yl)-[1,2,4]triazolo[1,5-c]quinazolin-5-amine]
- period lengthening effect after knockdown of adenosine receptors (Per2::Luc U2OS cells; A1, A2A, A2B adenosine receptors in U2OS cells knocked down using siRNA): lost
- response of clone3 after siRNA-mediated silencing of Fos [1]: significantly reduced

SMILES: CCNC(=O)[C@H]1O[C@@H](n2cnc3c(N)nc(NCCc4ccc(CCC(=O)O)cc4)nc32)[C@H](O)[C@@H]1O.Cl [CGS21680, 3-[4-[2-[[6-amino-9-[(2R,3R,4S,5S)-5-(ethylcarbamoyl)-3,4-dihydroxy-oxolan-2-yl]purin-2-yl]amino]ethyl]phenyl]propanoic acid]
- Per1/2 expression within the SCN (Per1/2 [2]): increased Per1/2 expression

SMILES: CNC(=O)[C@H]1O[C@@H](n2cnc3c(NCc4cccc(I)c4)ncnc32)[C@H](O)[C@@H]1O [IB-MECA, 1-Deoxy-1-[6-[((3-Iodophenyl)methyl)amino]-9H-purin-9-yl]-N-methyl-β-D-ribofuranuronamide]
- circadian period length (Per2::Luc U2OS cells): dose-dependent period length increases
- amplitude of the cellular clock (Per2::Luc U2OS cells; Per2::Luciferase construct, U2OS cells): increases in period and amplitude
- cAMP levels [3]: concurrent increase
- CREB-driven transcription (CRE::Luc reporter) (CRE::Luc reporter): activation
- Per1 mRNA levels / expression (Per1): elevated
- Per2 mRNA levels / expression (Per2): elevated
- phase shift of circadian activity (C57Bl/6 mice [4]): elicited a phase delay
- phase advance induced by light pulse (C57Bl/6 mice [5]): phase advance was lost

SMILES: CCn1c(=O)c2c(nc(/C=C/c3ccc(OC)c(OC)c3)n2C)n(CC)c1=O [Istradefylline, 8-[(E)-2-(3,4-dimethoxyphenyl)vinyl]-1,3-diethyl-7-methyl-3,7-dihydro-1H-purine-2,6-dione]
- circadian period length (Per2::Luc U2OS cells): increased circadian period length in a dose dependent manner

SMILES: O=C(Cc1ccccc1)Nc1nc2ccc(Cl)cc2c2nc(-c3ccco3)nn12 [MRS1220, 9-Chloro-2-(2-furanyl)-5-((phenylacetyl)amino)-[1,2,4]triazolo[1,5-c]quinazoline]
- circadian period length (Per2::Luc U2OS cells): increased circadian period length in a dose dependent manner

SMILES: Nc1nc(NCCc2ccc(O)cc2)nc2nc(-c3ccco3)nn12 [ZM241385, 4-(2-(7-amino-2-(furan-2-yl)-[1,2,4]triazolo[1,5-a][1,3,5]triazin-5-ylamino)ethyl)phenol]
- circadian period length (Per2::Luc U2OS cells): increased circadian period length in a dose dependent manner

SMILES: CC#C[C@]1(O)CC[C@H]2[C@@H]3CCC4=CC(=O)CCC4=C3[C@@H](c3ccc(N(C)C)cc3)C[C@@]21C [mifepristone]
- sleep deprivation-induced increase of Per1/2 within the cortex (Per1/2 [6]): blunted this response

Source: US11931374B2, “Adenosine receptor modulators for the treatment of circadian rhythm disorders” (OXFORD UNIVERSITY INNOVATION LIMITED, priority 2016, dated 2024)
